From patent publication US20260248800A1, “FERROPTOSIS INHIBITORS AND USES THEREOF” (UNIVERSITY OF OTTAWA, priority 2022, published 2026)
Where two headings read alike, the source gives them in different places.

What was measured:
[1] = H-bond acidity (α2^H) of the RTA by 1H NMR; assay type: physicochemical; conditions: estimated from the 1H NMR chemical shift difference of the amine proton in DMSO-d6 and benzene-d6
[2] = tested on: Pfa-1 mouse embryonic fibroblasts (MEFs); experiment: cells; conditions: Fibroblast
[3] = MeOAMVN-initiated co-autoxidation of STY-BODIPY and egg PC liposomes (FENIX); assay type: biochemical; conditions: for predicted increase in kinh^lip relative to PNX: predicted/estimated kinh^lip vs PNX; for n (radical-trapping stoichiometry): MeOAMVN-initiated co-autoxidation of STY-BODIPY and egg PC liposomes; for kinh^lip (predicted/estimated): estimated from kinh^0 and effective β2^H of egg PC liposomes
[4] = 5 h, read-out: Pfa-1 MEF Ferroptosis EC50, RSL3-induced cell death (150 nM for 5 hours), AquaBluer
[5] = predicted from log kinh^0, α2^H and β2^H=0.69 using Eq. 4 (too reactive to be determined directly)
[6] = apparent inhibition rate constant, MeOAMVN-initiated autoxidation of egg PC liposomes, determined by fluorescence
[7] = apparent inhibition rate constant, MeOAMVN-initiated autoxidation of egg PC liposomes, determined by absorbance (STY-BODIPY 10-20 μM, 565 nm)
[8] = Table 6, from survival curve of RSL3 induced ferroptosis of pfa-1 MEFS

SMILES	α2^H [1]	EC50 [2, 4]	n (radical-trapping stoichiometry) [3]	kinh^lip [3, 6]	other results
Cc1cc(C)c2c(c1)Nc1cc(C)cc(C)c1O2 [Compound 37, 2,4,6,8-Tetramethylphenoxazine]	0.39	9.6 ± 0.2 nM	–	–	kinh^lip [3, 5]: 1500 ^f 10^5 M^−1s^−1
COc1ccc2c(c1)Sc1cc(OC)ccc1N2 [Compound 32, 3,7-dimethoxyphenothiazine, reference compound]	0.34	9 nM	–	–	kinh^lip [3, 5]: 840 ^f 10^5 M^−1s^−1; predicted increase in kinh^lip relative to PNX [3]: 3.8 fold
O=[N+]([O-])c1ccc2c(c1)Sc1ccccc1N2 [Compound 28, 3-nitrophenothiazine, reference compound]	0.52	140 ± 18 nM	2.0 ± 0.1	(5.3 ± 0.3) 10^5 M^−1s^−1	–
O=[N+]([O-])c1ccc2c(c1)Oc1cc([N+](=O)[O-])ccc1N2 [Compound 19, 3,7-Dinitrophenoxazine]	0.72	405 nM	–	–	kinh^lip [3, 7]: (1.3 ± 0.1)^e 10^5 M^−1s^−1
CC(c1ccc2c(c1)Nc1ccccc1O2)S(=O)(=O)NCCN(C)C (centres unmarked) [Compound 43, N-(2-(dimethylamino)ethyl)-1-(10H-phenoxazin-2-yl)ethanesulfonamide]	–	15 ± 1 nM	–	–	EC50 [2, 8]: 15 ± 1 nM
COc1ccc2c(c1)Oc1cc(C#N)ccc1N2 [Compound 22, 3-Methoxy-7-cyanophenoxazine]	0.55	42 ± 6 nM	3.1 ± 0.3	–	kinh^lip [3, 7]: (133 ± 15)^e 10^5 M^−1s^−1
c1ccc2c(c1)Nc1cc3ccccc3cc1O2 [Compound 4, 12H-Benzo[b]phenoxazine]	0.49	5.2 ± 0.9 nM	2.4 ± 0.1	(101 ± 12) 10^5 M^−1s^−1	–
CCN(CC)S(=O)(=O)c1ccc2c(c1)Oc1ccccc1N2 [Compound 65, N,N-diethyl-3-sulfonamidephenoxazine]	–	31 ± 1 nM	–	–	–
COc1ccc2c(c1)Oc1ccccc1N2 [Compound 39, 3-methoxyphenoxazine]	0.42	12 nM	–	–	kinh^lip [3, 5]: 1490 ^f 10^5 M^−1s^−1; predicted increase in kinh^lip relative to PNX [3]: 6.7 fold
COc1ccc2c(c1)Oc1cc(OC)ccc1N2 [Compound 40, 3,7-dimethoxyphenoxazine]	0.40	11 nM	–	–	kinh^lip (predicted/estimated) [3]: 6e+06 M⁻¹ s⁻¹; kinh^lip [3, 5]: 6530 ^f 10^5 M^−1s^−1
Cc1cccc2c1Nc1c(C)cccc1O2 [Compound 36, 1,9-Dimethylphenoxazine]	0.12	14 nM	–	–	kinh^lip [3, 5]: 1150 ^f 10^5 M^−1s^−1
CN1CCN(S(=O)(=O)c2ccc3c(c2)Oc2ccc(C(C)(C)C)cc2N3)CC1 [Compound 61, 2-tert-Butyl-7-(4-methylpiperazin-1-ylsulfonyl)-phenoxazine]	–	15 ± 1 nM	–	–	–
CC(c1ccc2c(c1)Nc1ccccc1O2)S(=O)(=O)N1CCNCC1 (centres unmarked) [Compound 45, 2-(1-(piperazin-1-ylsulfonyl)ethyl)-10H-phenoxazine]	–	13 ± 1 nM	–	–	EC50 [2, 8]: 13 ± 1 nM
FC(F)(F)c1ccc2c(c1)Sc1ccccc1N2 [Compound 26, 3-trifluoromethylphenothiazine, reference compound]	0.45	41 ± 5 nM	2.6 ± 0.1	(9.8 ± 0.5) 10^5 M^−1s^−1	–
N#Cc1ccc2c(c1)Oc1ccccc1N2 [Compound 20, 3-cyanophenoxazine]	0.56	58 ± 1 nM	3.6 ± 0.1	(27 ± 2) 10^5 M^−1s^−1	–
Cc1ccc2c(c1)Oc1cc(C#N)ccc1N2 [Compound 21, 3-Methyl-7-cyanophenoxazine]	0.55	22 ± 5 nM	3.5 ± 0.1	(44 ± 6) 10^5 M^−1s^−1	–
CC(c1ccc2c(c1)Nc1ccc(C(F)(F)F)cc1O2)S(=O)(=O)N1CCN(C)CC1 (centres unmarked) [Compound 48, 2-(1-((4-methylpiperazin-1-yl)sulfonyl)ethyl)-7-(trifluoromethyl)-10H-phenoxazine]	–	16 ± 2 nM	–	–	EC50 [2, 8]: 16 ± 2 nM

SMILES	α2^H [1]	EC50 [2, 4]	n (radical-trapping stoichiometry) [3]	kinh^lip [3, 6]	other results
Cc1cc(C)c2c(c1)Oc1cc(C)cc(C)c1N2 [Compound 38, 1,3,7,9-Tetramethylphenoxazine]	0.10	7.6 ± 0.2 nM	–	–	kinh^lip [3, 5]: 1500 ^f 10^5 M^−1s^−1
CC(c1ccc2c(c1)Nc1ccccc1O2)S(=O)(=O)N1CCN(C)CC1 (centres unmarked) [Compound 47, 2-(1-((4-methylpiperazin-1-yl)sulfonyl)ethyl)-10H-phenoxazine]	–	45 ± 6 nM	–	–	EC50 [2, 8]: 45 ± 6 nM
O=[N+]([O-])c1ccc2c(c1)Oc1ccccc1N2 [Compound 15, 3-nitrophenoxazine]	0.62	43 nM	2.2 ± 0.1	–	kinh^lip [3, 7]: (10 ± 1)^e 10^5 M^−1s^−1
N#Cc1ccc2c(c1)Oc1cc(C=O)ccc1N2 [Compound 14, 3-Cyano-7-formylphenoxazine]	0.64	–	–	(7.1 ± 0.1) 10^5 M^−1s^−1	EC50 ([2]; 5 h, read-out: Pfa-1 MEF Ferroptosis EC50): 240 ± 16 nM
COc1ccc2c(c1)Oc1cc([N+](=O)[O-])ccc1N2 [Compound 17, 3-nitro-7-methoxyphenoxazine]	0.60	31 ± 1 nM	2.9 ± 0.2	–	kinh^lip [3, 7]: (61 ± 4)e 10^5 M^−1s^−1
Cc1ccc2c(c1)Oc1cc([N+](=O)[O-])ccc1N2 [Compound 16, 3-Methyl-7-nitrophenoxazine]	0.60	15 ± 1 nM	3.8 ± 0.3	–	kinh^lip [3, 7]: (23 ± 2)^e 10^5 M^−1s^−1
CC(C)(C)c1ccc2c(c1)Nc1cc(C(C)(C)C)ccc1O2 [Compound 33, 2,8-di-tert-butylphenoxazine]	–	7.2 ± 0.4 nM	–	–	EC50 [2, 8]: 7.2 ± 0.4 nM; kinh^lip [3, 5]: 730 ^f 10^5 M^−1s^−1
FC(F)(F)c1ccc2c(c1)Oc1ccccc1N2 [Compound 9, 3-trifluoromethylphenoxazine]	–	12 nM	3.0 ± 0.1	(42 ± 2) 10^5 M^−1s^−1	EC50 [2, 8]: 12 ± 1 nM
O=Cc1ccc2c(c1)Sc1ccccc1N2 [Compound 27, 3-formylphenothiazine, reference compound]	0.47	140 ± 10 nM	2.2 ± 0.1	(14 ± 1) 10^5 M^−1s^−1	–
CC(C)(C)c1ccc2c(c1)Nc1ccc(S(=O)(=O)N3CCNCC3)cc1O2 [Compound 60, 2-tert-Butyl-7-(piperazin-1-ylsulfonyl)-phenoxazine]	–	3 ± 0.2 nM	–	–	EC50 [2, 8]: 3 ± 0.2 nM
CCN(CC)c1ccc2c(c1)Oc1cc([N+](=O)[O-])ccc1N2 [Compound 18, N,N-diethyl-3-amine-7-nitrophenoxazine]	0.58	14 ± 2 nM	2.4 ± 0.4	–	kinh^lip [3, 7]: (177 ± 37)^e 10^5 M^−1s^−1
N#Cc1ccc2c(c1)Oc1cc([N+](=O)[O-])ccc1N2 [Compound 23, 3-cyano-7-nitrophenoxazine]	0.69	455 ± 19 nM	–	–	kinh^lip [3, 7]: (1.6 ± 0.1)^e 10^5 M^−1s^−1
O=Cc1ccc2c(c1)Oc1cc(C=O)ccc1N2 [Compound 13, 3,7-Diformylphenoxazine]	0.63	340 ± 49 nM	3.2 ± 0.1	(10 ± 1) 10^5 M^−1s^−1	–
c1ccc2c(c1)Nc1ccccc1[Se]2 [Compound 3, phenoselenazine, reference compound]	0.36	23 ± 2 nM	2.3 ± 0.1	–	kinh^lip [3, 7]: (56 ± 3)^e 10^5 M^−1s^−1
Cc1c(C)c2c(c(C)c1O)CCC(C)(C)O2 [PMC, 2,2,5,7,8-Pentamethyl-6-chromanol, reference compound]	0.38	360 ± 30 nM	(2)	(29 ± 2) 10^5 M^−1s^−1	kinh^lip (predicted/estimated) [3]: 35000 M⁻¹ s⁻¹; kinh^lip ([3]; measured in MeOAMVN-initiated autoxidation of egg PC liposomes): 29000 M⁻¹ s⁻¹
CC(C)(C)c1ccc2c(c1)Oc1cc(C(C)(C)C)ccc1N2 [Compound 34, 3,7-di-tert-butylphenoxazine]	–	7.4 ± 0.1 nM	–	–	EC50 [2, 8]: 7.4 ± 0.1 nM; kinh^lip [3, 5]: 1280 ^f 10^5 M^−1s^−1
